Results on 6 molecules are retold here after US20260055113A1, “HETEROARYL COMPOUNDS FOR THE TREATMENT OF CANCER” (Hoffmann-La Roche Inc., priority 2022, published 2026).

Series [1] is described as follows: Human microsomal stability assay. The format is in vitro ADME. Particulars: human liver microsomes 0.5 mg/mL, 1 μM test compound, 37° C., pH 7.4. As to the method: Human liver microsomes (Cat. NO.: 452117, Corning, USA) were preincubated with test compound for 10 minutes at 37° C. in 100 mM potassium phosphate buffer, pH 7.4. The reactions were initiated by adding NADPH regenerating system. The final incubation mixtures contained 1 μM test compound, 0.5 mg/mL liver microsomal protein, 1 mM MgCl2, 1 mM NADP, 1 unit/mL isocitric dehydrogenase and 6 mM isocitric acid in 100 mM potassium phosphate buffer, pH 7.4. After incubation times of 0, 3, 6, 9, 15 and 30 minutes at 37° C., 300 μL of cold ACN (including internal standard) was added to 100 μL incubation mixture to terminate the reaction. Following precipitation and centrifugation, 100 μL supernatant will be taken out and added 300 μL water. The amount of compound remaining in the samples was determined by LC-MS/MS. Controls of no NADPH regenerating system at zero and 30 minutes were also prepared and analyzed. The results were categorized as: low (<7.0 mL/min/kg), medium (7.0-16.2 mL/min/kg) and high (16.2-23.2 mL/min/kg).

Series [2] deals with T1, CD73 (Homo sapiens (Human), UniProt P21589). Briefly: CD73 cellular assay (MDA-MB-231 cells, malachite readout). The format is cell-based. Particulars: AMP substrate, 45 min, read-out: Cellular IC50 against CD73. As for the experimental part:
After incubating with compounds for 30 minutes, 40 μL of AMP working solution (200 μM AMP in assay buffer) was added into each well in the assay plate. The assay plate was then incubated in a 5% CO2 incubator (Thermo Fisher Scientific) at 37° C. for 45 min. After the reaction was completed, 50 μL of the supernatants was collected and transferred into a new 384 well plate. 10 μL of Malachite A was added to each well in the assay plate and incubated for 10 minutes. 10 μL of Malachite B was then added to each corresponding well of the plate and incubated for 30 minutes.
Target sequence in this assay (P21589 27-574): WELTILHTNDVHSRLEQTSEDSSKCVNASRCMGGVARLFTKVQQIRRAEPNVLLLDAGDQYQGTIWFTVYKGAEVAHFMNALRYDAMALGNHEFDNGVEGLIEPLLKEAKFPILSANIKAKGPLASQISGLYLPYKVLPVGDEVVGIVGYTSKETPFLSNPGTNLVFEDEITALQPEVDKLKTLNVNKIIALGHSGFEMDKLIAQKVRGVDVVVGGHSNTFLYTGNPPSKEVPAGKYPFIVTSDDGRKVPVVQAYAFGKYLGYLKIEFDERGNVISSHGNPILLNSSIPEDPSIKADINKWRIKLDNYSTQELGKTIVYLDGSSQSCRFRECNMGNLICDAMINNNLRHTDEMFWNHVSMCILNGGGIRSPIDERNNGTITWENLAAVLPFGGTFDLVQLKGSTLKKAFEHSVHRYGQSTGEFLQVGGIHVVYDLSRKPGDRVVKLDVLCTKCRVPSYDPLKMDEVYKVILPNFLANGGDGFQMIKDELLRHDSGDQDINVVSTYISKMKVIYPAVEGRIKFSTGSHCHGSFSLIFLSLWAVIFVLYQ

The target of series [3] is T1, CD73. The experiment in a line: CD73 potency assay using LC/MS (enzymatic). The format is biochemical. The conditions noted are these: 0.05 nM recombinant CD73 protein, LC/MS adenosine readout; read-out: Enzymatic IC50 against CD73. As for the experimental part: The purpose of this assay is to identify and characterize inhibitors of CD73 enzymatic activity. […] 10 μL of enzyme working solution (containing 0.05 nM recombinant CD73 protein, 10 mM Tris pH 7.5, 100 mM NaCl, 0.01% BSA, 0.2 mM Octyl glucoside) was added to the assay plate and incubated with compounds for 15 minutes at room temperature. After adding 15 μL of AMP working solution (Containing 10 mM Tris pH 7.5, 100 mM NaCl, 0.01% BSA, 0.2 mM Octyl glucoside, with 1000 μM of AMP final concentration) and incubate for 10 min at room temperature. […] After centrifugation, 75 μL of the mixture was transferred to a new 384-well plate for LC/MS analysis.
Samples from the 384-well plates, were loaded onto an autosampler deck, then injected with ADDA-LC-MS/MS. The aqueous mobile phase is 0.1% formic acid in water. The organic mobile phase is 0.1% formic acid in acetonitrile. Flow rate is maintained at 0.8 mL/minute using Shimadzu pumps. The column is ACE 5 Phenyl, 50×2.1 mm. The analysis was performed on a SCIEX triple quadrupole mass spectrometer operating in positive ion mode. The effluent from the HPLC column was directly introduced into the electrospray ionization (ESI). Multiple reaction monitoring (MRM) is used to determine analyte and internal standard (IS) responses. […] The data is calculated using the peak area ratio (PAR) semi-quantitative method.
Target sequence in this assay (P21589 27-574, species assumed): as the sequence (P21589 27-574) above

Another series concerns CD8+ T cells. Briefly: T cell proliferation assay, CD8+ T cells. The conditions noted are these: read-out: CD8+ T cell proliferation EC50; rescue of proliferation under high AMP condition (200 μM AMP), 72 hours.
The test system of the next series is CD4+ T cells. The experiment in a line: T cell proliferation assay, CD4+ T cells. The conditions noted are these: read-out: CD4+ T cell proliferation EC50; rescue of proliferation under high AMP condition (200 μM AMP), 72 hours.

The structures appear in SMILES notation.

Protocol for CD4+ T cells: (§1) The purpose of this assay is to characterize the potency of inhibitors of CD73 in rescuing adenosine-mediated inhibition of T cell proliferation. CD4+ or CD8+ T cells were isolated from peripheral blood mononuclear cells (PBMCs, HemaCare) by immunomagnetic negative selection using EasySep™ Isolation Kit ([sequence] Technologies) following the supplier's protocol. CD4+ or CD8+ T cells were pelleted by centrifugation at 300 gravitational force (g) for 5 minutes at room temperature and re-suspended in PBS. CellTrace™ Violet staining solution (Invitrogen) was added at 1:5,000 and incubated at 37° C. for 20 minutes, protected from light. […] Cells were then pelleted by centrifugation at 300 g for 5 minutes at room temperature and re-suspended in fresh, pre-warmed complete culture medium. 50 μL of cells were seeded per well in 96 well u-bottom plates. 50 μL of CD3/CD28 beads-containing medium and 50 μL of media containing compounds were added into cells. 50 μL of media containing AMP and EHNA hydrochloride (Sigma-Aldrich) was added into cells at 200 μM and 5 μM final concentration, respectively. Cells were incubated for 72 hours at 37° C. in a 5% CO2 incubator. 200 μL of PBS was then added to each well and cells were centrifuged at 300 g, 4° C. for 10 minutes. […] The supernatant was discarded and cells were re-suspended in 60 μL of cell staining buffer and analyzed on a flow cytometer.
Protocol for CD8+ T cells: as §1

In the case of `C[C@H](Oc1nn(C)c2nnc(-c3c[nH]c(=O)[nH]c3=O)cc12)c1ccccn1` [Example 26, 5-[1-methyl-3-[(1S)-1-(2-pyridyl)ethoxy]pyrazolo[3,4-c]pyridazin-5-yl]-1H-pyrimidine-2,4-dione], the “CL (h)” value in series [1] turned out to be 6.15 mL/min/kg. For the same molecule, the IC50 on CD73 [2] was found to be 2.7 nM; on CD73 [3], 0.33 nM. Moreover, the EC50 in the series with CD8+ T cells is 3.9 nM; in the series with CD4+ T cells, 5.6 nM.

As for `C[C@H](Oc1nn(C)c2nnc(-c3c[nH]c(=O)[nH]c3=O)cc12)c1ccccc1` [Example 27, 5-[1-methyl-3-[(1S)-1-phenylethoxy]pyrazolo[3,4-c]pyridazin-5-yl]-1H-pyrimidine-2,4-dione], in series [1], the “CL (h)” value came to 6.15 mL/min/kg. For the same molecule, the EC50 in the series with CD8+ T cells stood at 3.84 nM; with CD4+ T cells, 4.3 nM.

For the molecule `Cn1nc(O[C@H](c2ccccc2)C(F)(F)F)c2cc(-c3c[nH]c(=O)[nH]c3=O)nnc21` [Example 30A, 5-[1-methyl-3-[(1R)-2,2,2-trifluoro-1-phenyl-ethoxy]pyrazolo[3,4-c]pyridazin-5-yl]-1H-pyrimidine-2,4-dione], in series [1], the “CL (h)” value was 6.15 mL/min/kg. Also, the IC50 was found to be 1.6 nM at CD73 [2] and 0.15 nM at CD73 [3].

On to `CN(c1nn(C)c2nnc(-c3c[nH]c(=O)[nH]c3=O)cc12)C1CCCC1` [Example 36, 5-[3-[cyclopentyl(methyl)amino]-1-methyl-pyrazolo[3,4-c]pyridazin-5-yl]-1H-pyrimidine-2,4-dione], for which the “CL (h)” value in series [1] was 6.15 mL/min/kg. In addition, the IC50 stood at 8.6 nM on CD73 [2] and 2.23 nM on CD73 [3].

Take `C[C@@H](c1ccccc1)N(C)c1nn(C)c2nnc(-c3c[nH]c(=O)[nH]c3=O)cc12` [Example 38, 5-[1-methyl-3-[methyl-[(1S)-1-phenylethyl]amino]pyrazolo[3,4-c]pyridazin-5-yl]-1H-pyrimidine-2,4-dione]: the “CL (h)” value in series [1] turned out to be 9.3 mL/min/kg. In addition, the figures for the IC50 on CD73 [2] and on CD73 [3] were 1.6 nM and 0.25 nM, respectively.

For `Cn1nc(C2CCC2)c2cc(-c3c[nH]c(=O)[nH]c3=O)nnc21` [Example 39, 5-(3-cyclobutyl-1-methyl-pyrazolo[3,4-c]pyridazin-5-yl)-1H-pyrimidine-2,4-dione], in series [1], the “CL (h)” value is listed as 6.15 mL/min/kg. For the same molecule, the half-inhibitory concentration (IC50) at CD73 [2] stood at 3.5 nM; on CD73 [3], 0.7 nM.
